From PMC7966503, “Deciphering the Pharmacological Mechanisms of Guizhi-Fuling Capsule on Primary Dysmenorrhea Through Network Pharmacology” (Frontiers in Pharmacology, 2021)
Values joined by “and” are separate entries in the source; they are usually repeats but may differ in a detail not shown here. Identical values can stand only once. Like-named read-outs stand apart in the source and are kept apart here.

Legend:
[1] = target: T1, recombinant human COX2 (Homo sapiens, UniProt P35354); assay: COX2 activity assay (cyclooxygenase-2 inhibitor screening kit, fluorescence); assay type: biochemical; conditions: duplicated samples
T1 construct: purchased Beyotime #S0168
T1 sequence (P35354 18-604): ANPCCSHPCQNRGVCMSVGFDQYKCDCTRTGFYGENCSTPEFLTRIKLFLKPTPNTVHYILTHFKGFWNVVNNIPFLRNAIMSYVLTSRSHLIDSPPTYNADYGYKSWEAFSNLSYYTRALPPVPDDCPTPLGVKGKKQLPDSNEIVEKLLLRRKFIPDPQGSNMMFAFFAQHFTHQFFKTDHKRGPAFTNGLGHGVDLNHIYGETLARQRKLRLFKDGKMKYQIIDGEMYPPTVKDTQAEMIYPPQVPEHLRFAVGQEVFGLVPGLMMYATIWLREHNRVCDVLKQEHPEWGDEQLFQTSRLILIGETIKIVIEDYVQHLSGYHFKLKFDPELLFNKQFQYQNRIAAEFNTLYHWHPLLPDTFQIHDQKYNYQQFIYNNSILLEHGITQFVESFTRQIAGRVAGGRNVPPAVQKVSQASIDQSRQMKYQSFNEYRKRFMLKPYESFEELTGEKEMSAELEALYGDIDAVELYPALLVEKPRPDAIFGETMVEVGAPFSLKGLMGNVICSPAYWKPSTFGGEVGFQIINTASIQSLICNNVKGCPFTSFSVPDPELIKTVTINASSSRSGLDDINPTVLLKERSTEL
From the text: And then we selected predicted compounds and a specific target for preliminary analysis of their dosages and ratios as a starting point. In vitro enzyme activity assays were used to analyze the relationship between predicted GZFLC compounds’ different dosages and their intervention intensity on a specific target COX2, and to investigate GZFLC’s intervention intensity on COX2 under the specific ratio of GZFLC compounds which is relatively fixed in GZFLC. The content in the GZFLC (Jiangsu Kanion Pharmaceutical Co., Ltd. Jiangsu, China, No. 170601) was weighed and extracted with dimethyl sulfoxide (DMSO, 32.308:1, W/V, mg/ml) at 37°C for 30 min. The liquid was collected by centrifugation, and the supernatant was filtered through a 0.22 μ filter. The effect of GZFLC or pure chemicals including 1,2,3,4,6-penta-O-galloyl-beta-D-glucopyranose (purity (%) ≥98%, CAS: 14,937–32–7, Pubchem CID: 65238, Nanjing SenBeiJia Biological Technology Co., Ltd.), galloylpaeoniflorin (purity (%) ≥98%, CAS: 122,965–41–7, Pubchem CID: 46882879, Nanjing SenBeiJia Biological Technology Co., Ltd.), ethyl gallate (purity (%)≥98%, CAS: 831–61–8, Pubchem CID: 13250, Nanjing SenBeiJia Biological Technology Co., Ltd.) and gallic acid (purity (%)≥98%, CAS: 149–91–7, Pubchem CID: 370, Nanjing SenBeiJia Biological Technology Co., Ltd.) on COX2 activity was measured using cyclooxygenase-2 inhibitor screening kit (Beyotime, Cat. No. #S0168). Briefly, the recombinant human COX2 assay mixture (total volume = 90μL/well) consisting of assay buffer, cofactor, COX2 enzyme, and test compound (diluted in DMSO, 5.56% DMSO finally in assay) was incubated at 25°C for 5 min. Detection of the product was performed by adding probe (5μL/well). Arachidonic acid was added and the reaction was allowed to proceed for 15 min at 37°C. The fluorescence of the resulting solution was measured using SpectraMax M2e multilabel plate reader (Molecular Devices, United Kingdom). […] Data was represented as X¯±SD of duplicated samples. The effect of the samples on COX2 was calculated using the following equation: Relative activity of COX2(%)=(RFUsample−RFUBW/RFUA−RFUBW)×100%.

[2] = tested on: oxytocin-induced dysmenorrhea murine model; assay: Uterine histopathology (H&E) in oxytocin-induced dysmenorrhea murine model; assay type: in vivo, ICR mice; conditions: ibuprofen 0.1 g/kg; GZFLC 0.54 and 1.08 g/kg oral, seven days
Experimental: Oxytocin-induced dysmenorrhea in mice was performed according to the method previously reported ([Sun et al., 2002]). […] Except for the normal group (subcutaneous injection of saline), the other groups were administrated by subcutaneous estradiol benzoate injection (0.05 ml/mouse on the first and 10th day, and 0.025 ml/mouse on the remaining days) for ten consecutive days. […] On the 10th day, oxytocin (0.2 ml/2 IU/mouse) was administered by peritoneal injection 1 h after the last administration. The number of animal writhing times was observed and recorded within 30 min after injection of oxytocin. […] The mice were sacrificed immediately. The uterus tissues were fixed with 10% formalin for further study. The uterus tissues were fixed in 10% formalin and stained with hematoxylin and eosin (H&E). […] According to the severity of the lesion, it was recorded as one point (mild), two points (moderate), three points (severe), four points (extremely severe), no lesion was recorded as 0 point. All scores were accumulated and the average score ( X¯±SD ) of each animal in each group was calculated.

[3] = tested on: oxytocin-induced dysmenorrhea murine model; assay: Writhing response in oxytocin-induced dysmenorrhea murine model; assay type: in vivo, ICR mice; conditions: 0.1 g/kg oral; within 30 min after oxytocin; mean±SEM, n = 10; model group 32.6 ± 8.5
Experimental: Oxytocin-induced dysmenorrhea in mice was performed according to the method previously reported ([Sun et al., 2002]). […] Except for the normal group (subcutaneous injection of saline), the other groups were administrated by subcutaneous estradiol benzoate injection (0.05 ml/mouse on the first and 10th day, and 0.025 ml/mouse on the remaining days) for ten consecutive days. […] On the 10th day, oxytocin (0.2 ml/2 IU/mouse) was administered by peritoneal injection 1 h after the last administration. The number of animal writhing times was observed and recorded within 30 min after injection of oxytocin. […] The mice were sacrificed immediately. The uterus tissues were fixed with 10% formalin for further study.

[4] = read-out: IC50, inhibition of the activity of COX2 in vitro (converted)

SMILES	IC50 [1, 4]	other results
O=C(OC[C@H]1O[C@@H](OC(=O)c2cc(O)c(O)c(O)c2)[C@H](OC(=O)c2cc(O)c(O)c(O)c2)[C@@H](OC(=O)c2cc(O)c(O)c(O)c2)[C@@H]1OC(=O)c1cc(O)c(O)c(O)c1)c1cc(O)c(O)c(O)c1 [1,2,3,4,6-penta-O-galloyl-beta-D-glucopyranose]	380 nM and 383 nM	
CCOC(=O)c1cc(O)c(O)c(O)c1 [ethyl gallate]	1110 nM	
O=C(O)c1cc(O)c(O)c(O)c1 [gallic acid]		IC50 ([1]; IC50, inhibition of the activity of COX2 in vitro): 1950 nM and 1940 nM
C[C@@]12C[C@@]3(O)O[C@@H](O1)[C@]1(COC(=O)c4ccccc4)[C@H]3C[C@@]12O[C@@H]1O[C@H](COC(=O)c2cc(O)c(O)c(O)c2)[C@@H](O)[C@H](O)[C@H]1O [galloylpaeoniflorin]	740 nM and 743 nM	
CC(C)Cc1ccc(C(C)C(=O)O)cc1 (stereo not drawn) [ibuprofen]		degree of uterine lesions (histopathology, H&E) [2]: reducing the degree of uterine lesions; number of writhing times [3]: 5.9 ± 2.1
